From patent US4997454A, “Method for making uniformly-sized particles from insoluble compounds” (The University of Rochester, priority 1989, dated 1991)
Values after ≈ are worked out from the molar mass of the structure shown.

Legend:
[1] = solubility

CCOC(=O)c1c(I)cc(I)c(NC(=O)CCCCC(=O)Nc2c(I)cc(I)c(C(=O)OCC)c2I)c1I [IDE, iodipamide ethyl ester]
solubility in water: 10^-5 M

O=C1NC(=O)[C@H]2[C@H]3C=C[C@@H]([C@@H]12)[C@@H]1[C@H]2C(=O)NC(=O)[C@H]2[C@H]31 [mitindomide]
solubility ([1]; absolute ethanol, organic solvent or mixture): < 4 µg/mL
solubility ([1]; water): 70 µg/mL (≈ 257 µM)
